Laboratory results from patent publication US7196063B1, “Peptides and pharmaceutical compositions comprising same” (NST NeuroSurvival Technologies Ltd., priority 1999, dated 2007).
“Also recorded” adds a separate entry of the source. Like-named read-outs stand apart in the source and are kept apart here.

Key:
apoptotic HeLa cells [1] = test system: apoptotic HeLa cells
Method: One of the final steps of both intrinsic and extrinsic path-ways of coagulation, is the generation of thrombin from prothrombin. Thrombin is the final protease generated in the sequence of coagulation reaction, and its activity entails conversion of fibrinogen to fibrin, thus forming the clot. Generation of thrombin on the pro-coagulant surface of apoptotic cells was assayed (according to Bombeli T. et al., 1997, Blood 89(7), 2429–2442), by determining its activity, using the chromogenic substrate S-2366 (from Chromogenix, Sweden). Samples of pro-coagulant cells (HeLa cells treated with 500 μM of DA for 18 hours) were used for the assay. Reaction mixture, in a plastic 1 ml cuvette, contained 100 μl of cells (1.5×10^5), 350 μl of HBS (150 mM NaCl, 10 mM Hepes pH 7), and 150 μl of normal control plasma, that was re-calcified with 300 μl of 25 mM CaCl2. The reaction was started by addition of the substrate S-2366 to a final concentration of 0.2 mM, and the kinetics of thrombin activity was determined by optical density at OD405. Data was collected and analyzed by the Swift kinetics software (Pharmacia).

apoptotic HeLa cells [2] = assay: Modified APTT test with apoptotic HeLa cells as pro-coagulant surface; assay type: cell-based
Method: Apoptotic and control HeLa cells were prepared as described for the FACS analysis. Equal numbers of apoptotic or control non-treated cells (5×10^4) in a volume of […], were mixed with 100 μl of normal plasma, incubated for 1 min at 37° C. in a bath and then calcified by addition of 100 μl of 25 mM CaCl2, and clotting time was measured. Inhibition of the pro-coagulant activity of the apoptotic cells by NST500 compounds was tested following pre-incubation of apoptotic cells for 20 min. at room temperature with increased concentrations of the different NST 500 compounds.
The results can be seen in FIG. 4B.

With “Myristate-KVSFFCKNKEKKC-K (SEQ ID NO:1) (biotin) [NST513]” the “change of time needed for obtaining 50% of thrombin activity (factor)” value (apoptotic HeLa cells [1]; 5 μM) was 1.5, the “change of time needed for obtaining 50% of thrombin activity (factor)” value (apoptotic HeLa cells [1]; 10 μM) was 2.6 and the “thrombin generation by apoptotic cells” value (apoptotic HeLa cells [1]; 10 μM) was “rate of thrombin generation was also inhibited”. The “thrombin generation by apoptotic cells” value (apoptotic HeLa cells [1]; 25 μM) was “fully block”, the “thrombin activity (reflecting thrombin generation), dose response” value (apoptotic HeLa cells [1]; 5–50 μM) was “effectively inhibited” and the “thrombin generation by apoptotic cells” value (apoptotic HeLa cells [1]; 25–50μM) was “Total blockage of thrombin generation”. The “effect on clotting time of apoptotic cells” value (apoptotic HeLa cells [2]; 2.5–2.2 μM) was “marked and dose dependent inhibition of clotting time; also recorded: dose-dependent effect”, the “increase of clotting time of apoptotic cells (factor)” value (apoptotic HeLa cells [2]; 2.5–2.2 μM) was 3.2 times and the “clotting time of apoptotic cells” value (apoptotic HeLa cells [2]; apoptotic cells alone 50 seconds, control cells 80 seconds) was 160 s.
